Experiments:
[1] = system: BEAS-2B cells; experiment: Cell viability; format: cell-based, human; details: for Protection against the antiproliferative effects of elastase: Figure 4C, caspase 3 inhibitor 10 μM pre-incubation
[2] = system: caspase 3/7 activity of BEAS-2B cells; details: 100 nM elastase; 10 μM inhibitor pre-incubation
[3] = system: panel of 68 proteases; details: 10 μM
[4] = biological target: Human Pancreatic Chymotrypsin (Homo sapiens, UniProt P17538); experiment: In vitro protease assay, human pancreatic chymotrypsin; format: biochemical
Human Pancreatic Chymotrypsin, sequence (P17538 19-263): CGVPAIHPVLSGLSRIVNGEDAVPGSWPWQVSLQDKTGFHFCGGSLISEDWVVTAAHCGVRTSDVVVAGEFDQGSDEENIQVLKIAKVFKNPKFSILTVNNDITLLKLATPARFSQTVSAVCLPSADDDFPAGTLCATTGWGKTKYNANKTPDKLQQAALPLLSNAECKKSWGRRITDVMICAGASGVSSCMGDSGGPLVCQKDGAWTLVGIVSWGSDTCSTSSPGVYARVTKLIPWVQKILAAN

[5] = system: BEAS-2B cells; experiment: Cell detachment and morphology change; format: cell-based, human; details: for Elastase-induced cell rounding (morphology change): 10 μM cotreatment, 3 h
[6] = system: sICAM-1; details: 6 h cotreatment, culture supernatant
[7] = system: IκB degradation and p65 nuclear translocation; details: 3 h of cotreatment
[8] = system: transcript levels in BEAS-2B cells; details: 3 h cotreatment

COC(=O)CC[C@H](NC(=O)[C@H](CC(=O)OC)NC(=O)OCc1ccccc1)C(=O)N[C@H](C(=O)N[C@@H](CC(=O)OC)C(=O)CF)C(C)C
Protection against the antiproliferative effects of elastase [1]: partially protected | Effect on elastase-induced increase in caspase activation [2]: abrogated

C/C=C1\NC(=O)[C@@H](NC(=O)[C@H](CCC(N)=O)NC(=O)CCCCC)[C@@H](C)OC(=O)[C@H](C(C)C)NC(=O)[C@H](Cc2ccc(O)cc2)N(C)C(=O)[C@H](Cc2ccccc2)N2C(=O)[C@H](CC[C@H]2O)NC1=O [Lyngbyastatin 7]
Inhibition of the serine proteases elastase, chymotrypsin and proteinase K [3]: completely inhibiting

CC(C)(C)C(=O)Oc1ccc(S(=O)(=O)Nc2ccccc2C(=O)NCC(=O)O)cc1 [Sivelestat]
IC50 [4]: > 10000 nM | Protection against the antiproliferative effects of elastase [1]: partially protected | Concentration required to completely negate elastase-induced cytotoxicity ([1]; elastase co-treatment, 24 h): 100 µM | Elastase-induced cell rounding (morphology change) [5]: prevented this effect of elastase | Concentration showing cytoprotective effect against cell detachment ([5]; 12 h): 100 µM

C/C=C1\NC(=O)[C@@H](NC(=O)[C@@H](NC(=O)[C@@H](COS(=O)(=O)[O-])OC)C(C)C)[C@@H](C)OC(=O)[C@H]([C@H](C)CC)NC(=O)[C@H](Cc2ccccc2)N(C)C(=O)[C@H](Cc2ccccc2)N2C(=O)[C@H](CC[C@H]2O)NC1=O.[Na+] [Symplostatin 5 (1), Symplostatin 5]
Effect on proliferation of BEAS-2B cells ([1]; up to 100 μM, with solvent control or 100 nM elastase, 24 h): did not significantly affect the proliferation | Elastase-induced cell rounding (morphology change) [5]: prevented this effect of elastase | Concentration that decreased elastase-induced sICAM-1 level [6]: ≥ 1 µM | Elastase-induced IκB degradation and p65 nuclear translocation [7]: dose-dependently inhibited | Elastase-induced increase in IL1B transcript levels (RT-qPCR) [8]: strongly abrogated

elastase: exogenous elastase used to challenge BEAS-2B cells
IC50 ([1]; read-out: Antiproliferative IC50 of elastase (MTT), BEAS-2B, 24 h): 77.5 ± 4.9 nM

From publication PMC3624605 (Journal of medicinal chemistry, 2013)
